Measurements: patent US20200087625A1, “METHODS FOR ISOLATING, EXPANDING AND ADMINISTERING CANCER SPECIFIC CD8+ T CELLS” (priority 2017, published 2020)

Assays:
[1] = Serum cytokine analysis (Luminex) after systemic administration; type: in vivo, BALB/c mice; conditions: mouse, in vivo
Description: FIG. 36. […] BALB/c mice (n=5) were i.p. administered IV270 (200 μg=185 nmol/injection) or […] (58 μg=185 nmol/injection) and sera were collected 2, 4, 6, and 24 hours following the administration. The levels of TNFα, IL-12, and IP-IO were measured by Luminex assay. *P<0.05, **P<0.01 by two way ANOVA using a Bonferroni post hoc test comparing treatment groups.
The sera were collected from mice receiving […] of 1V136, 1V270 or vehicle 2, 4, 6, and 24 hours after i.p. administration (15). Cytokine levels in sera were determined by Luminex bead assays (MILLIPLEX™ MAP kit, Millip ore, Billerica, Mass.).

metastatic lung tumors = conditions: intratracheal administration; cited from earlier work
dermatological tumors = conditions: cited from earlier work

Q: With `COCCOc1nc(N)c2[nH]c(=O)n(Cc3ccccc3)c2n1` [1V136, reference compound] as the compound, how does the systemic proinflammatory cytokines [1] read?
A: high levels of systemic proinflammatory cytokines

Q: With `CCCCNc1nc(N)c2[nH]c(=O)n(Cc3ccc(C)nc3)c2n1` [SM276001] as the compound, how does the metastatic lung tumors (metastatic lung tumors) read?
A: suppress metastatic lung tumors

Q: With `CC(C)Cn1cnc2c(N)nc3ccccc3c21` [imiquimod] as the compound, how does the clinical efficacy (dermatological tumors; patients with basal cell carcinoma and actinic keratosis, topical) read?
A: favorable clinical efficacy

Q: And the “toxicity on systemic administration” value (dermatological tumors; systemic administration)?
A: immunotoxicity induced by systemic administration
